In PubChem BioAssay (NCI):
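Five compound concentrations were applied to cells in 96-well plates for 48 hours; endpoints were derived by simple linear interpolation of the resulting dose-response curve. TGI: total growth inhibition.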

system: KM20L2 colon; test: DTP human tumour cell line panel, 48 h

Compound	TGI [µM]
Cc1cccc(N(CC(=O)O)S(=O)(=O)c2ccccc2)c1	> 100

system: TK-10 renal; test: DTP human tumour cell line panel, 48 h

Compound	TGI [µM]
O=C1C2=C(CCC2)Nc2cccc3ncn1c23	75.7
N#Cc1c(-c2ccco2)cc(-c2ccccc2)[nH]c1=O	> 100
O=c1[nH]c2cc([N+](=O)[O-])ccc2nc1/C(=N\Nc1ccccc1)C(O)c1ccc2c(c1)OCO2 (stereo not given)	> 100
Cc1cccc(N(CC(=O)O)S(=O)(=O)c2ccccc2)c1	> 100

system: RXF-631 renal; test: DTP human tumour cell line panel, 48 h

Compound	TGI [µM]
N#Cc1c(-c2ccco2)cc(-c2ccccc2)[nH]c1=O	> 100
O=c1[nH]c2cc([N+](=O)[O-])ccc2nc1/C(=N\Nc1ccccc1)C(O)c1ccc2c(c1)OCO2 (stereo not given)	> 100
Cc1cccc(N(CC(=O)O)S(=O)(=O)c2ccccc2)c1	> 100

system: XF 498 CNS; test: DTP human tumour cell line panel, 48 h

Compound	TGI [µM]
O=C1C2=C(CCC2)Nc2cccc3ncn1c23	> 100
Cc1cccc(N(CC(=O)O)S(=O)(=O)c2ccccc2)c1	> 100

system: NCI-H226 lung; test: DTP human tumour cell line panel, 48 h

Compound	TGI [µM]
N#Cc1c(-c2ccco2)cc(-c2ccccc2)[nH]c1=O	> 100
O=c1[nH]c2cc([N+](=O)[O-])ccc2nc1/C(=N\Nc1ccccc1)C(O)c1ccc2c(c1)OCO2 (stereo not given)	> 100
Cc1cccc(N(CC(=O)O)S(=O)(=O)c2ccccc2)c1	> 100

system: IGROV1 ovarian; test: DTP human tumour cell line panel, 48 h

Compound	TGI [µM]
O=C1C2=C(CCC2)Nc2cccc3ncn1c23	> 100
N#Cc1c(-c2ccco2)cc(-c2ccccc2)[nH]c1=O	> 100
O=c1[nH]c2cc([N+](=O)[O-])ccc2nc1/C(=N\Nc1ccccc1)C(O)c1ccc2c(c1)OCO2 (stereo not given)	> 100
Cc1cccc(N(CC(=O)O)S(=O)(=O)c2ccccc2)c1	> 100

system: DLD-1 colon; test: DTP human tumour cell line panel, 48 h

Compound	TGI [µM]
O=C1C2=C(CCC2)Nc2cccc3ncn1c23	> 100
N#Cc1c(-c2ccco2)cc(-c2ccccc2)[nH]c1=O	> 100
O=c1[nH]c2cc([N+](=O)[O-])ccc2nc1/C(=N\Nc1ccccc1)C(O)c1ccc2c(c1)OCO2 (stereo not given)	> 100
Cc1cccc(N(CC(=O)O)S(=O)(=O)c2ccccc2)c1	> 100

system: EKVX NSCLC; test: DTP human tumour cell line panel, 48 h

Compound	TGI [µM]
O=C1C2=C(CCC2)Nc2cccc3ncn1c23	> 100
N#Cc1c(-c2ccco2)cc(-c2ccccc2)[nH]c1=O	> 100
O=c1[nH]c2cc([N+](=O)[O-])ccc2nc1/C(=N\Nc1ccccc1)C(O)c1ccc2c(c1)OCO2 (stereo not given)	> 100
Cc1cccc(N(CC(=O)O)S(=O)(=O)c2ccccc2)c1	> 100

system: SK-OV-3 ovarian; test: DTP human tumour cell line panel, 48 h

Compound	TGI [µM]
O=C1C2=C(CCC2)Nc2cccc3ncn1c23	> 100
N#Cc1c(-c2ccco2)cc(-c2ccccc2)[nH]c1=O	> 100
O=c1[nH]c2cc([N+](=O)[O-])ccc2nc1/C(=N\Nc1ccccc1)C(O)c1ccc2c(c1)OCO2 (stereo not given)	> 100
Cc1cccc(N(CC(=O)O)S(=O)(=O)c2ccccc2)c1	> 100

system: K-562 leukemia; test: DTP human tumour cell line panel, 48 h

Compound	TGI [µM]
O=C1C2=C(CCC2)Nc2cccc3ncn1c23	> 100
N#Cc1c(-c2ccco2)cc(-c2ccccc2)[nH]c1=O	> 100
O=c1[nH]c2cc([N+](=O)[O-])ccc2nc1/C(=N\Nc1ccccc1)C(O)c1ccc2c(c1)OCO2 (stereo not given)	> 100
Cc1cccc(N(CC(=O)O)S(=O)(=O)c2ccccc2)c1	> 100

system: LXFL 529 NSCLC; test: DTP human tumour cell line panel, 48 h

Compound	TGI [µM]
O=C1C2=C(CCC2)Nc2cccc3ncn1c23	> 100
N#Cc1c(-c2ccco2)cc(-c2ccccc2)[nH]c1=O	> 100
O=c1[nH]c2cc([N+](=O)[O-])ccc2nc1/C(=N\Nc1ccccc1)C(O)c1ccc2c(c1)OCO2 (stereo not given)	> 100
Cc1cccc(N(CC(=O)O)S(=O)(=O)c2ccccc2)c1	> 100

system: HCC-2998 colon; test: DTP human tumour cell line panel, 48 h

Compound	TGI [µM]
O=C1C2=C(CCC2)Nc2cccc3ncn1c23	> 100
N#Cc1c(-c2ccco2)cc(-c2ccccc2)[nH]c1=O	> 100
O=c1[nH]c2cc([N+](=O)[O-])ccc2nc1/C(=N\Nc1ccccc1)C(O)c1ccc2c(c1)OCO2 (stereo not given)	> 100
Cc1cccc(N(CC(=O)O)S(=O)(=O)c2ccccc2)c1	> 100

system: U251 CNS; test: DTP human tumour cell line panel, 48 h

Compound	TGI [µM]
O=C1C2=C(CCC2)Nc2cccc3ncn1c23	> 100
N#Cc1c(-c2ccco2)cc(-c2ccccc2)[nH]c1=O	> 100
O=c1[nH]c2cc([N+](=O)[O-])ccc2nc1/C(=N\Nc1ccccc1)C(O)c1ccc2c(c1)OCO2 (stereo not given)	> 100
Cc1cccc(N(CC(=O)O)S(=O)(=O)c2ccccc2)c1	> 100

system: SNB-19 CNS; test: DTP human tumour cell line panel, 48 h

Compound	TGI [µM]
O=C1C2=C(CCC2)Nc2cccc3ncn1c23	> 100
N#Cc1c(-c2ccco2)cc(-c2ccccc2)[nH]c1=O	> 100
O=c1[nH]c2cc([N+](=O)[O-])ccc2nc1/C(=N\Nc1ccccc1)C(O)c1ccc2c(c1)OCO2 (stereo not given)	> 100
Cc1cccc(N(CC(=O)O)S(=O)(=O)c2ccccc2)c1	> 100

system: HL-60(TB) leukemia; test: DTP human tumour cell line panel, 48 h

Compound	TGI [µM]
O=C1C2=C(CCC2)Nc2cccc3ncn1c23	> 100
N#Cc1c(-c2ccco2)cc(-c2ccccc2)[nH]c1=O	> 100
O=c1[nH]c2cc([N+](=O)[O-])ccc2nc1/C(=N\Nc1ccccc1)C(O)c1ccc2c(c1)OCO2 (stereo not given)	> 100
Cc1cccc(N(CC(=O)O)S(=O)(=O)c2ccccc2)c1	> 100

system: OVCAR-3 ovarian; test: DTP human tumour cell line panel, 48 h

Compound	TGI [µM]
N#Cc1c(-c2ccco2)cc(-c2ccccc2)[nH]c1=O	> 100
O=c1[nH]c2cc([N+](=O)[O-])ccc2nc1/C(=N\Nc1ccccc1)C(O)c1ccc2c(c1)OCO2 (stereo not given)	> 100
Cc1cccc(N(CC(=O)O)S(=O)(=O)c2ccccc2)c1	> 100

system: CAKI-1 renal; test: DTP human tumour cell line panel, 48 h

Compound	TGI [µM]
Cc1cccc(N(CC(=O)O)S(=O)(=O)c2ccccc2)c1	> 100

system: A549 NSCLC; test: DTP human tumour cell line panel, 48 h

Compound	TGI [µM]
O=C1C2=C(CCC2)Nc2cccc3ncn1c23	> 100
N#Cc1c(-c2ccco2)cc(-c2ccccc2)[nH]c1=O	> 100
O=c1[nH]c2cc([N+](=O)[O-])ccc2nc1/C(=N\Nc1ccccc1)C(O)c1ccc2c(c1)OCO2 (stereo not given)	> 100
Cc1cccc(N(CC(=O)O)S(=O)(=O)c2ccccc2)c1	> 100

system: NCI-H23 lung; test: DTP human tumour cell line panel, 48 h

Compound	TGI [µM]
O=C1C2=C(CCC2)Nc2cccc3ncn1c23	> 100
N#Cc1c(-c2ccco2)cc(-c2ccccc2)[nH]c1=O	> 100
O=c1[nH]c2cc([N+](=O)[O-])ccc2nc1/C(=N\Nc1ccccc1)C(O)c1ccc2c(c1)OCO2 (stereo not given)	> 100
Cc1cccc(N(CC(=O)O)S(=O)(=O)c2ccccc2)c1	> 100

system: SF-268 CNS; test: DTP human tumour cell line panel, 48 h

Compound	TGI [µM]
O=C1C2=C(CCC2)Nc2cccc3ncn1c23	> 100
N#Cc1c(-c2ccco2)cc(-c2ccccc2)[nH]c1=O	> 100
O=c1[nH]c2cc([N+](=O)[O-])ccc2nc1/C(=N\Nc1ccccc1)C(O)c1ccc2c(c1)OCO2 (stereo not given)	> 100
Cc1cccc(N(CC(=O)O)S(=O)(=O)c2ccccc2)c1	> 100

system: HOP-18 NSCLC; test: DTP human tumour cell line panel, 48 h

Compound	TGI [µM]
O=C1C2=C(CCC2)Nc2cccc3ncn1c23	64.2
Cc1cccc(N(CC(=O)O)S(=O)(=O)c2ccccc2)c1	> 100

system: HOP-92 NSCLC; test: DTP human tumour cell line panel, 48 h

Compound	TGI [µM]
N#Cc1c(-c2ccco2)cc(-c2ccccc2)[nH]c1=O	> 100
O=c1[nH]c2cc([N+](=O)[O-])ccc2nc1/C(=N\Nc1ccccc1)C(O)c1ccc2c(c1)OCO2 (stereo not given)	42.7
Cc1cccc(N(CC(=O)O)S(=O)(=O)c2ccccc2)c1	> 100

system: MALME-3M melanoma; test: DTP human tumour cell line panel, 48 h

Compound	TGI [µM]
O=C1C2=C(CCC2)Nc2cccc3ncn1c23	> 100
N#Cc1c(-c2ccco2)cc(-c2ccccc2)[nH]c1=O	> 100
O=c1[nH]c2cc([N+](=O)[O-])ccc2nc1/C(=N\Nc1ccccc1)C(O)c1ccc2c(c1)OCO2 (stereo not given)	> 100
Cc1cccc(N(CC(=O)O)S(=O)(=O)c2ccccc2)c1	> 100

system: SN12C renal; test: DTP human tumour cell line panel, 48 h

Compound	TGI [µM]
O=C1C2=C(CCC2)Nc2cccc3ncn1c23	> 100
N#Cc1c(-c2ccco2)cc(-c2ccccc2)[nH]c1=O	> 100
O=c1[nH]c2cc([N+](=O)[O-])ccc2nc1/C(=N\Nc1ccccc1)C(O)c1ccc2c(c1)OCO2 (stereo not given)	> 100
Cc1cccc(N(CC(=O)O)S(=O)(=O)c2ccccc2)c1	> 100

system: CCRF-CEM leukemia; test: DTP human tumour cell line panel, 48 h

Compound	TGI [µM]
O=C1C2=C(CCC2)Nc2cccc3ncn1c23	> 100
N#Cc1c(-c2ccco2)cc(-c2ccccc2)[nH]c1=O	> 100
O=c1[nH]c2cc([N+](=O)[O-])ccc2nc1/C(=N\Nc1ccccc1)C(O)c1ccc2c(c1)OCO2 (stereo not given)	> 100
Cc1cccc(N(CC(=O)O)S(=O)(=O)c2ccccc2)c1	> 100

system: SK-MEL-5 melanoma; test: DTP human tumour cell line panel, 48 h

Compound	TGI [µM]
O=C1C2=C(CCC2)Nc2cccc3ncn1c23	> 100
N#Cc1c(-c2ccco2)cc(-c2ccccc2)[nH]c1=O	> 100
O=c1[nH]c2cc([N+](=O)[O-])ccc2nc1/C(=N\Nc1ccccc1)C(O)c1ccc2c(c1)OCO2 (stereo not given)	> 100
Cc1cccc(N(CC(=O)O)S(=O)(=O)c2ccccc2)c1	> 100

system: SF-295 CNS; test: DTP human tumour cell line panel, 48 h

Compound	TGI [µM]
O=C1C2=C(CCC2)Nc2cccc3ncn1c23	> 100
N#Cc1c(-c2ccco2)cc(-c2ccccc2)[nH]c1=O	> 100
O=c1[nH]c2cc([N+](=O)[O-])ccc2nc1/C(=N\Nc1ccccc1)C(O)c1ccc2c(c1)OCO2 (stereo not given)	> 100
Cc1cccc(N(CC(=O)O)S(=O)(=O)c2ccccc2)c1	> 100

system: UACC-257 melanoma; test: DTP human tumour cell line panel, 48 h

Compound	TGI [µM]
O=C1C2=C(CCC2)Nc2cccc3ncn1c23	> 100
N#Cc1c(-c2ccco2)cc(-c2ccccc2)[nH]c1=O	> 100
O=c1[nH]c2cc([N+](=O)[O-])ccc2nc1/C(=N\Nc1ccccc1)C(O)c1ccc2c(c1)OCO2 (stereo not given)	> 100
Cc1cccc(N(CC(=O)O)S(=O)(=O)c2ccccc2)c1	> 100

system: SK-MEL-28 melanoma; test: DTP human tumour cell line panel, 48 h

Compound	TGI [µM]
O=C1C2=C(CCC2)Nc2cccc3ncn1c23	> 100
N#Cc1c(-c2ccco2)cc(-c2ccccc2)[nH]c1=O	> 100
O=c1[nH]c2cc([N+](=O)[O-])ccc2nc1/C(=N\Nc1ccccc1)C(O)c1ccc2c(c1)OCO2 (stereo not given)	> 100
Cc1cccc(N(CC(=O)O)S(=O)(=O)c2ccccc2)c1	> 100

system: HT29 colon; test: DTP human tumour cell line panel, 48 h

Compound	TGI [µM]
N#Cc1c(-c2ccco2)cc(-c2ccccc2)[nH]c1=O	> 100
O=c1[nH]c2cc([N+](=O)[O-])ccc2nc1/C(=N\Nc1ccccc1)C(O)c1ccc2c(c1)OCO2 (stereo not given)	> 100
Cc1cccc(N(CC(=O)O)S(=O)(=O)c2ccccc2)c1	> 100
